Test results published in patent EP3002287B1, “Thiochromeno[2,3-c]quinolin-12-one derivatives and their use as topoisomerase inhibitors” (National Defense Medical Center, priority 2014, dated 2016).

Columns and labels:
HCT-15 = experiment: NCI in vitro 60-cell drug screen (SRB assay); type: cell-based; details: HCT-15 (Colon cancer); 10^-5 molar concentration; 48 hours
HOP-62 = experiment: NCI in vitro 60-cell drug screen (SRB assay); type: cell-based; details: HOP-62 (Non-small cell lung cancer); 10^-5 molar concentration; 48 hours
SF-268 = experiment: NCI in vitro 60-cell drug screen (SRB assay); type: cell-based; details: SF-268 (CNS cancer); 10^-5 molar concentration; 48 hours
PC-3 = experiment: NCI in vitro 60-cell drug screen (SRB assay); type: cell-based; details: PC-3 (Prostate cancer); 10^-5 molar concentration; 48 hours
UACC-62 = experiment: NCI in vitro 60-cell drug screen (SRB assay); type: cell-based; details: UACC-62 (Melanoma); 10^-5 molar concentration; 48 hours
SNB-75 = experiment: NCI in vitro 60-cell drug screen (SRB assay); type: cell-based; details: SNB-75 (CNS cancer); 10^-5 molar concentration; 48 hours
RXF 393 = experiment: NCI in vitro 60-cell drug screen (SRB assay); type: cell-based; details: RXF 393 (Renal cancer); 10^-5 molar concentration; 48 hours
COLO 205 = experiment: NCI in vitro 60-cell drug screen (SRB assay); type: cell-based; details: COLO 205 (Colon cancer); 10^-5 molar concentration; 48 hours
MCF7 = experiment: NCI in vitro 60-cell drug screen (SRB assay); type: cell-based; details: MCF7 (Breast cancer); 10^-5 molar concentration; 48 hours
ACHN = experiment: NCI in vitro 60-cell drug screen (SRB assay); type: cell-based; details: ACHN (Renal cancer); 10^-5 molar concentration; 48 hours
MALME-3M = experiment: NCI in vitro 60-cell drug screen (SRB assay); type: cell-based; details: MALME-3M (Melanoma); 10^-5 molar concentration; 48 hours
SW-620 = experiment: NCI in vitro 60-cell drug screen (SRB assay); type: cell-based; details: SW-620 (Colon cancer); 10^-5 molar concentration; 48 hours
M14 = experiment: NCI in vitro 60-cell drug screen (SRB assay); type: cell-based; details: M14 (Melanoma); 10^-5 molar concentration; 48 hours
HS 578T = experiment: NCI in vitro 60-cell drug screen (SRB assay); type: cell-based; details: HS 578T (Breast cancer); 10^-5 molar concentration; 48 hours
RPMI-8226 = experiment: NCI in vitro 60-cell drug screen (SRB assay); type: cell-based; details: RPMI-8226 (Leukemia); 10^-5 molar concentration; 48 hours
60 cell lines = experiment: NCI in vitro 60-cell drug screen (SRB assay), whole panel statistics; details: mean over the cell panel; 10^-5 molar concentration; 48 hours
SK-MEL-5 = experiment: NCI in vitro 60-cell drug screen (SRB assay); type: cell-based; details: SK-MEL-5 (Melanoma); 10^-5 molar concentration; 48 hours
NCI-H23 = experiment: NCI in vitro 60-cell drug screen (SRB assay); type: cell-based; details: NCI-H23 (Non-small cell lung cancer); 10^-5 molar concentration; 48 hours
OVCAR-8 = experiment: NCI in vitro 60-cell drug screen (SRB assay); type: cell-based; details: OVCAR-8 (Ovarian cancer); 10^-5 molar concentration; 48 hours
UACC-257 = experiment: NCI in vitro 60-cell drug screen (SRB assay); type: cell-based; details: UACC-257 (Melanoma); 10^-5 molar concentration; 48 hours
LOX IMVI = experiment: NCI in vitro 60-cell drug screen (SRB assay); type: cell-based; details: LOX IMVI (Melanoma); 10^-5 molar concentration; 48 hours
UO-31 = experiment: NCI in vitro 60-cell drug screen (SRB assay); type: cell-based; details: UO-31 (Renal cancer); 10^-5 molar concentration; 48 hours
SK-MEL-2 = experiment: NCI in vitro 60-cell drug screen (SRB assay); type: cell-based; details: SK-MEL-2 (Melanoma); 10^-5 molar concentration; 48 hours
T-47D = experiment: NCI in vitro 60-cell drug screen (SRB assay); type: cell-based; details: T-47D (Breast cancer); 10^-5 molar concentration; 48 hours
SK-MEL-28 = experiment: NCI in vitro 60-cell drug screen (SRB assay); type: cell-based; details: SK-MEL-28 (Melanoma); 10^-5 molar concentration; 48 hours
SNB-19 = experiment: NCI in vitro 60-cell drug screen (SRB assay); type: cell-based; details: SNB-19 (CNS cancer); 10^-5 molar concentration; 48 hours
OVCAR-3 = experiment: NCI in vitro 60-cell drug screen (SRB assay); type: cell-based; details: OVCAR-3 (Ovarian cancer); 10^-5 molar concentration; 48 hours
NCI/ADR-RES = experiment: NCI in vitro 60-cell drug screen (SRB assay); type: cell-based; details: NCI/ADR-RES (Ovarian cancer); 10^-5 molar concentration; 48 hours
OVCAR-5 = experiment: NCI in vitro 60-cell drug screen (SRB assay); type: cell-based; details: OVCAR-5 (Ovarian cancer); 10^-5 molar concentration; 48 hours
MOLT-4 = experiment: NCI in vitro 60-cell drug screen (SRB assay); type: cell-based; details: MOLT-4 (Leukemia); 10^-5 molar concentration; 48 hours
786-0 = experiment: NCI in vitro 60-cell drug screen (SRB assay); type: cell-based; details: 786-0 (Renal cancer); 10^-5 molar concentration; 48 hours
NCI-H522 = experiment: NCI in vitro 60-cell drug screen (SRB assay); type: cell-based; details: NCI-H522 (Non-small cell lung cancer); 10^-5 molar concentration; 48 hours
HOP-92 = experiment: NCI in vitro 60-cell drug screen (SRB assay); type: cell-based; details: HOP-92 (Non-small cell lung cancer); 10^-5 molar concentration; 48 hours
HCC-2998 = experiment: NCI in vitro 60-cell drug screen (SRB assay); type: cell-based; details: HCC-2998 (Colon cancer); 10^-5 molar concentration; 48 hours
U251 = experiment: NCI in vitro 60-cell drug screen (SRB assay); type: cell-based; details: U251 (CNS cancer); 10^-5 molar concentration; 48 hours
K-562 = experiment: NCI in vitro 60-cell drug screen (SRB assay); type: cell-based; details: K-562 (Leukemia); 10^-5 molar concentration; 48 hours
NCI-H460 = experiment: NCI in vitro 60-cell drug screen (SRB assay); type: cell-based; details: NCI-H460 (Non-small cell lung cancer); 10^-5 molar concentration; 48 hours

| SMILES | Growth percent (HCT-15) [%] | Growth percent (HOP-62) [%] | Growth percent (SF-268) [%] | Growth percent (PC-3) [%] | Growth percent (UACC-62) [%] | Growth percent (SNB-75) [%] | Growth percent (RXF 393) [%] | Growth percent (COLO 205) [%] | Growth percent (MCF7) [%] | Growth percent (ACHN) [%] | Growth percent (MALME-3M) [%] | Growth percent (SW-620) [%] | Growth percent (M14) [%] | Growth percent (HS 578T) [%] | Growth percent (RPMI-8226) [%] | Growth percent, Mean (60 cell lines) [%] | Growth percent (SK-MEL-5) [%] | Growth percent (NCI-H23) [%] | Growth percent (OVCAR-8) [%] | Growth percent (UACC-257) [%] | further results |
| --- | --- | --- | --- | --- | --- | --- | --- | --- | --- | --- | --- | --- | --- | --- | --- | --- | --- | --- | --- | --- | --- |
| O=c1c2cc(Cl)ccc2sc2c(N3CCN(Cc4ccccc4)CC3)nc3ccccc3c12 [Compound 11, 6-(4-Benzylpiperazin-1-yl)-10-chloro-12H-thiochromeno[2,3-c]q uinolin-12-one] | 94.51 | 87.72 | 100.42 | 89.12 | 96.00 | 82.62 | 100.71 | 105.64 | 68.32 | 96.39 | 112.36 | 93.08 | 93.00 | 76.42 | 96.63 | 96.19 | 98.38 | 89.94 | 98.54 | 95.39 | Growth percent (LOX IMVI): 94.22%; Growth percent (UO-31): 64.91%; Growth percent (SK-MEL-2): 107.37%; Growth percent (T-47D): 89.22%; Growth percent (SK-MEL-28): 104.19%; Growth percent (SNB-19): 95.52%; Growth percent (OVCAR-3): 101.69%; Growth percent (NCI/ADR-RES): 98.31%; Growth percent (OVCAR-5): 111.92%; Growth percent (MOLT-4): 90.91%; Growth percent (786-0): 105.57%; Growth percent (NCI-H522): 96.69%; Growth percent (HOP-92): 70.17%; Growth percent (HCC-2998): 99.32%; Growth percent (U251): 96.69%; Growth percent (K-562): 87.84%; Growth percent (NCI-H460): 95.57% |
| COc1nc2ccccc2c2c(=O)c3cc(Cl)ccc3sc12 [Compound 5, 10-Chloro-6-methoxy-12H-thiochromeno[2,3-c]quinolin-12-one] | 107.99 | 69.64 | 94.12 | 92.46 | 96.15 | 52.28 | 109.68 | 97.94 | 65.39 | 74.89 | 94.19 | 103.05 | 88.40 | 66.51 | 102.86 | 92.10 | 99.74 | 80.14 | 91.82 | 108.09 | Growth percent (LOX IMVI): 91.21%; Growth percent (UO-31): 74.69%; Growth percent (SK-MEL-2): 105.52%; Growth percent (T-47D): 68.46%; Growth percent (SK-MEL-28): 112.31%; Growth percent (SNB-19): 89.36%; Growth percent (OVCAR-3): 96.60%; Growth percent (NCI/ADR-RES): 96.10%; Growth percent (OVCAR-5): 106.70%; Growth percent (MOLT-4): 80.62%; Growth percent (786-0): 99.15%; Growth percent (NCI-H522): 92.71%; Growth percent (HOP-92): 80.11%; Growth percent (HCC-2998): 104.67%; Growth percent (U251): 99.18%; Growth percent (K-562): 95.83%; Growth percent (NCI-H460): 101.23% |
| O=C(O)c1c(Sc2ccc(Cl)cc2)c(O)nc2ccccc12 [Compound 2, 3-((4-Chlorophenyl)thio)-2-hydroxyquinoline-4-carboxylic acid] | 107.80 | 116.47 | 113.60 | 93.23 | 102.05 | 82.18 | 113.90 | 108.65 | 91.95 | 113.47 | 107.05 | 96.92 | 106.90 | 88.33 | 98.10 | 102.11 | 98.07 | 92.61 | 114.68 | 121.83 | Growth percent (LOX IMVI): 90.46%; Growth percent (UO-31): 68.91%; Growth percent (SK-MEL-2): 119.91%; Growth percent (T-47D): 99.59%; Growth percent (SK-MEL-28): 98.95%; Growth percent (SNB-19): 97.17%; Growth percent (OVCAR-3): 121.29%; Growth percent (NCI/ADR-RES): 97.75%; Growth percent (OVCAR-5): 112.47%; Growth percent (MOLT-4): 97.25%; Growth percent (786-0): 104.44%; Growth percent (NCI-H522): 81.64%; Growth percent (HOP-92): 72.97%; Growth percent (HCC-2998): 100.97%; Growth percent (U251): 99.59%; Growth percent (K-562): 112.29%; Growth percent (NCI-H460): 104.20% |
| CN1CCN(c2nc3ccccc3c3c(=O)c4cc(Cl)ccc4sc23)CC1 [Compound 8, 10-Chloro-6-(4-methylpiperazin-1-yl)-12H-thiochromeno[2,3-c]q uinolin-12-one] | 93.94 | 49.41 | 82.98 | 84.81 | 99.27 | 42.15 | 88.57 | 90.06 | 76.60 | 89.73 | 108.36 | 95.50 | 102.15 | 65.57 | 91.11 | 86.81 | 99.54 | 81.11 | 89.44 | 100.55 | Growth percent (LOX IMVI): 87.47%; Growth percent (UO-31): 48.97%; Growth percent (SK-MEL-2): 97.53%; Growth percent (T-47D): 82.24%; Growth percent (SK-MEL-28): 107.92%; Growth percent (SNB-19): 87.07%; Growth percent (OVCAR-3): 89.13%; Growth percent (NCI/ADR-RES): 81.35%; Growth percent (OVCAR-5): 98.14%; Growth percent (MOLT-4): 87.97%; Growth percent (786-0): 90.48%; Growth percent (NCI-H522): 98.78%; Growth percent (HOP-92): 17.97%; Growth percent (HCC-2998): 96.87%; Growth percent (U251): 92.52%; Growth percent (K-562): 72.98%; Growth percent (NCI-H460): 96.05% |
